Data from PubChem BioAssay AID330 (DTP/NCI, 2004).
Values joined by “and” are separate entries in the source; they are usually repeats but may differ in a detail not shown here. Equal values may be shown once. Inconclusive results and toxic doses are left out. Rule for the calls: active = survival T/C of 150% or more; inactive = T/C below 125% in these data. Peptide text beside a SMILES is read from it. * marks the point of attachment. Cbz = O=C(OCc1ccccc1)*

Tested on: P388 leukemia ip, CD2F1 mice, survival T/C
Test: NCI In Vivo Anticancer Drug Screen. Data for tumor model P388 Leukemia (intraperitoneal) in CD2F1 (CDF1) mice
Conditions: endpoint: median survival time, higher = longer survival
In short: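 Mice carrying the transplanted tumor received test compound or vehicle. Survival was recorded in each group, and the value is the treated-group measurement divided by that of the vehicle-treated control group.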

[1] = dose: 50.0 mg/kg/injection, schedule: Q01DX009 (ip), vehicle: saline with Tween-80
[2] = dose: 100.0 mg/kg/injection, schedule: Q01DX009 (ip), vehicle: saline with Tween-80
[3] = dose: 200.0 mg/kg/injection, schedule: Q01DX009 (ip), vehicle: saline with Tween-80
[4] = dose: 100.0 mg/kg/injection, schedule: Q01DX001 (ip), vehicle: saline
[5] = dose: 12.5 mg/kg/injection, schedule: Q01DX009 (ip), vehicle: saline with Tween-80
[6] = dose: 25.0 mg/kg/injection, schedule: Q01DX009 (ip), vehicle: saline with Tween-80
[7] = dose: 60.0 mg/kg/injection, schedule: Q01DX005 (ip), vehicle: saline with Tween-80
[8] = dose: 100.0 mg/kg/injection, schedule: Q04DX003 (ip), vehicle: Klucel (hydroxypropylcellulose) (HPC)
[9] = dose: 200.0 mg/kg/injection, schedule: Q04DX003 (ip), vehicle: Klucel (hydroxypropylcellulose) (HPC)
[10] = dose: 12.5 mg/kg/injection, schedule: Q01DX005 (ip), vehicle: Klucel (hydroxypropylcellulose) (HPC)
[11] = dose: 25.0 mg/kg/injection, schedule: Q01DX005 (ip), vehicle: Klucel (hydroxypropylcellulose) (HPC)
[12] = dose: 50.0 mg/kg/injection, schedule: Q01DX005 (ip), vehicle: Klucel (hydroxypropylcellulose) (HPC)
[13] = dose: 100.0 mg/kg/injection, schedule: Q01DX005 (ip), vehicle: Klucel (hydroxypropylcellulose) (HPC)
[14] = dose: 200.0 mg/kg/injection, schedule: Q01DX005 (ip), vehicle: Klucel (hydroxypropylcellulose) (HPC)
[15] = dose: 50.0 mg/kg/injection, schedule: Q01DX005 (ip), vehicle: saline with Tween-80
[16] = dose: 100.0 mg/kg/injection, schedule: Q01DX005 (ip), vehicle: saline with Tween-80
[17] = dose: 200.0 mg/kg/injection, schedule: Q01DX005 (ip), vehicle: saline with Tween-80

Measured: T/C

NNC(=O)c1ccc(NC(=O)CSc2nc3ccccc3s2)cc1
inactive: dose: 12.5 mg/kg/injection, schedule: Q01DX009 (ip), vehicle: Klucel (hydroxypropylcellulose) (HPC) 99 % of control | dose: 25.0 mg/kg/injection, schedule: Q01DX009 (ip), vehicle: Klucel (hydroxypropylcellulose) (HPC) 102 % of control | dose: 50.0 mg/kg/injection, schedule: Q01DX009 (ip), vehicle: Klucel (hydroxypropylcellulose) (HPC) 101 % of control

O=C(O)C(c1ccccc1)C1CCCC1 (stereo not given)
inactive: dose: 50.0 mg/kg/injection, schedule: Q04DX003 (ip), vehicle: saline with Tween-80 110 % of control | dose: 100.0 mg/kg/injection, schedule: Q04DX003 (ip), vehicle: saline with Tween-80 110 % of control | dose: 200.0 mg/kg/injection, schedule: Q04DX003 (ip), vehicle: saline with Tween-80 105 % of control

CC(=O)OCC1OC(Sc2nnc(-c3ccccc3)c(-c3ccccc3)n2)C(OC(C)=O)C(OC(C)=O)C1OC(C)=O (stereo not given)
inactive: [1] 107 % of control | [2] 98 % of control | [3] 100 % of control

C1=NC(c2ccccc2)C(/C=C/c2ccccc2)N=C1c1ccccc1 (stereo not given)
inactive: [4] 96 % of control | dose: 200.0 mg/kg/injection, schedule: Q01DX001 (ip), vehicle: saline 93 % of control | dose: 400.0 mg/kg/injection, schedule: Q01DX001 (ip), vehicle: saline 86 % of control

CC1([P+](C)(C)C)C2C=CC1CC2 (stereo not given)
inactive: dose: 25.0 mg/kg/injection, schedule: Q01DX001 (ip), vehicle: saline 100 % of control | dose: 50.0 mg/kg/injection, schedule: Q01DX001 (ip), vehicle: saline 103 % of control | dose: 100.0 mg/kg/injection, schedule: Q01DX001 (ip), vehicle: saline with Tween-80 105 % of control | [4] 100 % of control

CCCCNCCC(=O)c1ccc(Cl)cc1
inactive: dose: 6.25 mg/kg/injection, schedule: Q01DX009 (ip), vehicle: saline with Tween-80 100 % of control | [5] 100 % of control | [6] 105 % of control

CC(=O)C(C=O)C(C)=O.CC(=O)CC(C)=O.CC(=O)CC(C)=O.[Ru]
inactive: dose: 15.0 mg/kg/injection, schedule: Q01DX005 (ip), vehicle: saline with Tween-80 100 % of control | dose: 30.0 mg/kg/injection, schedule: Q01DX005 (ip), vehicle: saline with Tween-80 102 % of control | [7] 104 % of control and 109 % of control

C=C(C)C1CCC=CC(=O)C1 (stereo not given)
inactive: [8] 107 % of control | [9] 116 % of control

COc1ccc(N2CCN(CC(O)COc3cc4c(c5c3CCCC5)CCCC4)CC2)cc1 (stereo not given)
inactive: [8] 104 % of control | [9] 94 % of control | dose: 400.0 mg/kg/injection, schedule: Q04DX003 (ip), vehicle: Klucel (hydroxypropylcellulose) (HPC) 108 % of control

Cc1ccc(-n2c(N)cc(=O)[nH]c2=S)nc1
inactive: dose: 56.25 mg/kg/injection, schedule: Q01DX001 (ip), vehicle: saline with Tween-80 104 % of control | dose: 112.5 mg/kg/injection, schedule: Q01DX001 (ip), vehicle: saline with Tween-80 100 % of control | dose: 225.0 mg/kg/injection, schedule: Q01DX001 (ip), vehicle: saline with Tween-80 90 % of control

C1CC2CC1CC2CNCC1CC2CCC1C2 (stereo not given)
inactive: [10] 103 % of control | [11] 103 % of control | [12] 98 % of control and 101 % of control

Nc1cccc2[nH]c(=O)c3ccccc3c12
inactive: [7] 93 % of control | dose: 120.0 mg/kg/injection, schedule: Q01DX005 (ip), vehicle: saline with Tween-80 105 % of control | dose: 240.0 mg/kg/injection, schedule: Q01DX005 (ip), vehicle: saline with Tween-80 106 % of control

CN(C)C(=O)c1nc(CNC(=O)CN)n(-c2ccc(Cl)cc2C(=O)c2ccccc2)n1
inactive: dose: 60.0 mg/kg/injection, schedule: Q01DX005 (ip), vehicle: Klucel (hydroxypropylcellulose) (HPC) 103 % of control | dose: 120.0 mg/kg/injection, schedule: Q01DX005 (ip), vehicle: Klucel (hydroxypropylcellulose) (HPC) 100 % of control

COc1ccc(OCC2=NCCc3ccccc32)cc1
inactive: [12] 99 % of control | [13] 107 % of control | [14] 109 % of control

CCCCCC(C)(O)C1=NCCN1 (stereo not given)
inactive: [10] 97 % of control | [11] 95 % of control | [12] 100 % of control and 93 % of control

CN1C(=O)Nc2ccc(Cl)cc2C1(O)c1ccccc1 (stereo not given)
inactive: [6] 90 % of control | [1] 86 % of control | [2] 92 % of control | [3] 91 % of control

CCCCCCCCCCCCCCCC(=O)O[C@@H]1[C@@H](C)[C@@]2(O)[C@@H](C=C(CO)C[C@]3(O)C(=O)C(C)=C[C@@H]23)[C@H]2[C@]1(OC(C)=O)[C@]2(C)CO
inactive: dose: 0.13 mg/kg/injection, schedule: Q01DX005 (ip), vehicle: distilled water + Tween-80 117 % of control and 120 % of control | dose: 0.25 mg/kg/injection, schedule: Q01DX005 (ip), vehicle: distilled water + Tween-80 111 % of control | dose: 0.5 mg/kg/injection, schedule: Q01DX005 (ip), vehicle: distilled water + Tween-80 106 % of control

Cc1cc(NC(=O)C(=O)CC(=O)c2cccnc2)no1
inactive: [15] 102 % of control | [16] 101 % of control | [17] 101 % of control

COc1cc(-c2ccc(N=Nc3cc(S(=O)(=O)O)c4ccccc4c3O)c(OC)c2)ccc1N=Nc1cc(S(=O)(=O)O)c2ccccc2c1O
inactive: dose: 100.0 mg/kg/injection, schedule: Q01DX009 (ip), vehicle: saline 99 % of control | dose: 200.0 mg/kg/injection, schedule: Q01DX009 (ip), vehicle: saline 104 % of control | dose: 400.0 mg/kg/injection, schedule: Q01DX009 (ip), vehicle: saline 115 % of control

CC1(C)N=C(N)N=C(N)N1c1ccc(CCCCc2ccc(Cl)cc2Cl)cc1
inactive: dose: 3.13 mg/kg/injection, schedule: Q01DX009 (ip), vehicle: saline with Tween-80 118 % of control | [5] 122 % of control

Cc1cc(Br)c(OC(=O)Nc2cccc(Cl)c2Cl)cc1C
inactive: dose: 12.5 mg/kg/injection, schedule: Q01DX009 (ip), vehicle: saline 88 % of control | dose: 25.0 mg/kg/injection, schedule: Q01DX009 (ip), vehicle: saline 99 % of control | [1] 88 % of control | dose: 50.0 mg/kg/injection, schedule: Q01DX009 (ip), vehicle: saline 119 % of control | [2] 114 % of control

CCC(C)C(NC(=O)C(Cc1ccc(O)cc1)NC(=O)OCc1ccccc1)C(=O)OC (stereo not drawn) (Cbz-Tyr-Ile-OMe; configuration not given here)
inactive: [15] 106 % of control | [16] 92 % of control | [17] 97 % of control

CCOC(=O)c1ccccc1OP(=O)(N(C)C)N(C)C
inactive: [1] 99 % of control and 100 % of control and 108 % of control | [2] 99 % of control and 109 % of control and 97 % of control | [3] 99 % of control and 103 % of control and 109 % of control

O=C(NCCCCCCNC(=O)c1ccccc1)c1ccccc1
inactive: [12] 100 % of control and 90 % of control | [13] 107 % of control and 86 % of control | [14] 89 % of control and 90 % of control

CC(CO)(CO)N(CCO)CCO
inactive: dose: 50.0 mg/kg/injection, schedule: Q01DX005 (ip), vehicle: saline 101 % of control | dose: 100.0 mg/kg/injection, schedule: Q01DX005 (ip), vehicle: saline 101 % of control | dose: 200.0 mg/kg/injection, schedule: Q01DX005 (ip), vehicle: saline 99 % of control

COc1ccc2nc3ccccc3c(NCCCCCCCCNc3c4ccccc4nc4ccc(OC)cc34)c2c1
inactive: dose: 0.63 mg/kg/injection, schedule: Q01DX009 (ip), vehicle: other 113 % of control | dose: 1.25 mg/kg/injection, schedule: Q01DX009 (ip), vehicle: other 109 % of control | dose: 2.5 mg/kg/injection, schedule: Q01DX009 (ip), vehicle: other 104 % of control | dose: 3.75 mg/kg/injection, schedule: Q01DX009 (ip), vehicle: other 109 % of control | dose: 5.0 mg/kg/injection, schedule: Q01DX009 (ip), vehicle: other 113 % of control | dose: 7.5 mg/kg/injection, schedule: Q01DX009 (ip), vehicle: other 120 % of control

COc1ccc(/C=C2\C=CC(=O)O2)cc1
inactive: dose: 100.0 mg/kg/injection, schedule: Q01DX002 (ip), vehicle: Klucel (hydroxypropylcellulose) (HPC) 104 % of control | dose: 200.0 mg/kg/injection, schedule: Q01DX002 (ip), vehicle: Klucel (hydroxypropylcellulose) (HPC) 103 % of control | dose: 400.0 mg/kg/injection, schedule: Q01DX002 (ip), vehicle: Klucel (hydroxypropylcellulose) (HPC) 105 % of control
